Legend:
[1] = in vitro; details: human, hela cells, % viability
[2] = in vitro; set-up: Viability of infected HeLa host cells, resazurin conversion, bulk resorufin fluorescence relative to DMSO; details: human, hela cells; bulk resorufin, mean of 2
[3] = tested on: T1, CTL2-GFP (C. trachomatis L2/434/Bu, GFP-expressing); test: microbe, parasite or virus in culture; set-up: Intracellular C. trachomatis growth in HeLa cells, bulk GFP fluorescence relative to DMSO; details: Chlamydia trachomatis, HeLa, 28.5 h; bulk GFP, mean of 2; read-out: % of control remaining
T1 construct: L2/434/Bu, GFP-expressing
Protocol: MICs were calculated as described above.

[4] = tested on: T2, C. trachomatis L2/434/Bu expressing GFP (CTL2-GFP); test: microbe, parasite or virus in culture; set-up: C. trachomatis total inclusion area by high-content imaging, normalised to DMSO; details: Chlamydia trachomatis, HeLa, 28.5 h; total inclusion area; read-out: % of control remaining
T2 construct: L2/434/Bu GFP intracellular growth in HeLa cells
Procedure, shortened: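 After bulk GFP and resorufin reads, fixed cells were Hoechst-stained and imaged to count chlamydial inclusions and host nuclei. Total inclusion area and number tracked bacterial growth, and nuclei number tracked host viability. MICs were derived, and 36,785 drug-like molecules were screened this way.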

Structure (SMILES) | viability at 28.5 h, 10 µM [1] [%] | viability at 28.5 h, 1 µM [2] [%] | viability at 28.5 h, 5 µM [2] [%] | viability at 28.5 h, 10 µM [2] [%] | activity at 1 µM [3] [%] | activity at 5 µM [3] [%] | activity at 10 µM [3] [%] | activity at 1 µM [4] [%] | activity at 5 µM [4] [%] | activity at 10 µM [4] [%]
N#CCCCN1CCC(Oc2cncc(OCc3ccc(Cl)c(Cl)c3)n2)C1 (centres unmarked) [CBK084436] | 96.1 | 95.4 | 102 | 99.4 | 127 | 81.2 | 52.7 | 118 | 74.4 | 32.6
O=C(NCCNCCNC(=O)C1(c2ccccc2)CCCC1)C1(c2ccccc2)CCCC1 [CBK017670] | 110 | 91.6 | 93.5 | 89.5 | 123 | 49.1 | 13.5 | 107 | 54.1 | 8.64
Cc1cc(NS(=O)(=O)c2ccc(NC(=S)NC(=O)C(C)(C)C)cc2)no1 [CBK268877] | 95.7 | 93.4 | 96.5 | 99.1 | 123 | 78.8 | 33.7 | 74.7 | 64 | 35.4
CC(Cc1nc(-c2nccn2C)cs1)n1cc(Cl)cn1 (centres unmarked) [CBK304114] | 90.1 | 108 | 100 | 105 | 79.3 | 21 | 7.42 | 97.2 | 15.4 | 7.1
CC(Nc1cc(N2CCN(CCO)CC2)ccc1[N+](=O)[O-])c1ccc(Br)cc1 (centres unmarked) [CBK041273] | 103 | 91.4 | 94.5 | 96.3 | 139 | 130 | 93.8 | 130 | 81.9 | 47.4
Clc1ccc2nc(-c3ccccn3)[nH]c2c1 [CBK000116] | 83.8 | 111 | 104 | 104 | 75 | 13.8 | 1.74 | 70.7 | 9.19 | 1.69
O=C(Nc1ccccc1C(=O)Nc1nnc(C(F)(F)F)s1)c1ccccc1Cl [CBK076900] | 76.9 | 94.7 | 97 | 84.6 | 130 | 90.8 | 45.1 | 113 | 64.7 | 63.4
Nc1ncc(-c2ccc(C(=O)N3CCOCC3)cc2)cc1C(=O)NCc1ccc(Cl)c(Cl)c1 [CBK158570] | 109 | 91.9 | 93.3 | 93.8 | 97.9 | 89.9 | 72 | 87.8 | 108 | 65.8
Cc1noc(NS(=O)(=O)c2ccc(NC(=O)COc3ccccc3Br)cc2)c1C [CBK263918] | 89.4 | 96.5 | 96.5 | 95.3 | 97.7 | 57.6 | 25.5 | 91.6 | 88.5 | 31
O=C(Nc1nccs1)c1cc(C2CCN(C(=O)CC3CCCCC3)C2)nc2ccccc12 (centres unmarked) [CBK285586] | 116 | 92.6 | 93 | 93.3 | 134 | 122 | 35.7 | 115 | 119 | 48.9
COC(=O)N1CCc2ccc(N3C[C@H](CNC(C)=O)OC3=O)cc2CC1 [CBK022485] | 79.8 | 88.3 | 85.8 | 90.5 | 136 | 44.2 | 12.6 | 128 | 35.2 | 7.61
CCCn1c(NC(=O)C(C)Oc2ccc(Cl)cc2Cl)nc2ccccc21 (centres unmarked) [CBK296979] | 108 | 88 | 93.1 | 89.7 | 129 | 103 | 54.1 | 137 | 94.8 | 58.2
CCN1CCN(c2cc3c(cc2F)c(=O)c(C(=O)NCCOC)cn3C2CC2)CC1 [CBK300529] | 94.2 | 88.9 | 93 | 88.7 | 36.3 | 5.5 | 6.24 | 24.3 | 3.14 | 0.623
c1ccc(-c2nnc3ccccc3c2N2CCNCC2)cc1 [CBK066888] | 107 | 114 | 106 | 105 | 125 | 82.9 | 27.1 | 97.7 | 46 | 0.17
OCCn1ncc2c(NCc3cccc(Cn4ccnc4)c3)ncnc21 [CBK304184] | 90.3 | 96.1 | 92 | 92.4 | 144 | 158 | 128 | 81 | 101 | 58.7
CCCc1cc(C(=O)N2CCN(c3nccc(OC)n3)CC2)[nH]n1 [CBK304898] | 87 | 89.4 | 93.7 | 89.2 | 148 | 151 | 156 | 127 | 120 | 43.6
CC(C)(CNS(=O)(=O)c1ccc(F)cc1)CNS(=O)(=O)c1ccc(F)cc1 [CBK265455] | 111 | 112 | 111 | 116 | 79.4 | 13.3 | 0 | 80.8 | 21.4 | 1.74
OCC1(CNc2ncc(F)c(N3CCCC3)n2)CCOCC1 [CBK306647] | 87.3 | 100 | 93.8 | 95.5 | 108 | 64.2 | 59 | 130 | 60.9 | 47.1
Cc1cccc(Nc2nc(C)cc3n[nH]c(=O)n23)c1 [CBK288477] | 89.2 | 102 | 104 | 81.5 | 134 | 57.5 | 29.6 | 74.4 | 33.7 | 17.7
CN1CCOC(CNc2nc(-c3ccncc3)nc3c2CCC3)C1 (centres unmarked) [CBK304890] | 87 | 90.5 | 92.8 | 99.5 | 141 | 112 | 126 | 46.1 | 45.8 | 25.1
OC(COc1ccc(Br)cc1)CN1CCCN(c2nc3ccc(Cl)cc3s2)CC1 (centres unmarked) [CBK074643] | 93.5 | 86.1 | 88.1 | 88 | 137 | 114 | 43.8 | 121 | 82.4 | 11.3
O=C(c1ccc(-c2ccc(F)cc2)o1)N1C[C@H]2CC[C@](O)(c3ccc(F)cc3)[C@H]2C1 [CBK286415] | 94.1 | 91.9 | 86.5 | 91.6 | 6.79 | 7.93 | 15.1 | 0.419 | 0.168 | 0.106
C/C(=N\Nc1nnc2c(n1)[nH]c1ccccc12)c1ccccn1 [CBK262054] | 94.5 | 87.3 | 69.7 | 70.2 | 18 | 12.2 | 10.5 | 18.7 | 2.45 | 1.6
